Experimental data published in the NIST ThermoML archive (doi:10.1016/j.jct.2008.10.007).

Tests used:
[1] = xn = mol fraction of the nth substance listed; conditions: 298.15 K, 101 kPa, Liquid, Vibrating tube method
[2] = excess molar enthalpy (molar enthalpy of mixing); xn = mol fraction of the nth substance listed; conditions: 298.15 K, 101 kPa, Liquid, Calvet calorimetry

CCCOC=O [propyl methanoate] + ClCCCCCCl
Conditions | mass density [kg/m3]
[1], x1 = 1 | 899.81

CCCOC=O [propyl methanoate] + ClCCCCl
Conditions | excess molar enthalpy [kJ/mol] | mass density [kg/m3]
[1], x1 = 0.0604 | – | 1161.58
[1], x1 = 0.1163 | – | 1145.6
[1], x1 = 0.1772 | – | 1128.25
[1], x1 = 0.2336 | – | 1112.22
[1], x1 = 0.2937 | – | 1095.19
[1], x1 = 0.3531 | – | 1078.45
[1], x1 = 0.4676 | – | 1046.35
[1], x1 = 0.5255 | – | 1030.24
[1], x1 = 0.5854 | – | 1013.57
[1], x1 = 0.6437 | – | 997.42
[1], x1 = 0.7051 | – | 980.49
[1], x1 = 0.7636 | – | 964.45
[1], x1 = 0.8238 | – | 947.98
[1], x1 = 0.8823 | – | 932.02
[1], x1 = 1 | – | 899.81
[2], x1 = 0.065 | -0.015 | –
[2], x1 = 0.1452 | -0.031 | –
[2], x1 = 0.2308 | -0.054 | –
[2], x1 = 0.3182 | -0.079 | –
[2], x1 = 0.3939 | -0.099 | –
[2], x1 = 0.4578 | -0.105 | –
[2], x1 = 0.5145 | -0.114 | –
[2], x1 = 0.5379 | -0.113 | –
[2], x1 = 0.5862 | -0.112 | –
[2], x1 = 0.6669 | -0.103 | –
[2], x1 = 0.7509 | -0.088 | –
[2], x1 = 0.8484 | -0.062 | –
[2], x1 = 0.9347 | -0.032 | –

CCCOC(=O)CCC [propyl butanoate] + ClCCCCCl
Conditions | excess molar enthalpy [kJ/mol] | mass density [kg/m3]
[1], x1 = 0.1349 | – | 1087.88
[1], x1 = 0.1841 | – | 1072.12
[1], x1 = 0.233 | – | 1056.97
[1], x1 = 0.2856 | – | 1041.17
[1], x1 = 0.3405 | – | 1025.23
[1], x1 = 0.3956 | – | 1009.76
[1], x1 = 0.5129 | – | 978.41
[1], x1 = 0.6385 | – | 947.12
[1], x1 = 0.7731 | – | 915.88
[1], x1 = 0.8454 | – | 900
[1], x1 = 0.918 | – | 884.64
[1], x1 = 1 | – | 867.9
[2], x1 = 0.0503 | -0.019 | –
[2], x1 = 0.1217 | -0.049 | –
[2], x1 = 0.2009 | -0.085 | –
[2], x1 = 0.2826 | -0.128 | –
[2], x1 = 0.3602 | -0.174 | –
[2], x1 = 0.4315 | -0.216 | –
[2], x1 = 0.5579 | -0.263 | –
[2], x1 = 0.6248 | -0.256 | –
[2], x1 = 0.699 | -0.234 | –
[2], x1 = 0.7829 | -0.191 | –
[2], x1 = 0.8689 | -0.126 | –
[2], x1 = 0.9389 | -0.066 | –

CCCOC(=O)CCC [propyl butanoate] + ClCCCCl
Conditions | excess molar enthalpy [kJ/mol] | mass density [kg/m3]
[1], x1 = 0.0366 | – | 1161.49
[1], x1 = 0.0766 | – | 1143.1
[1], x1 = 0.1186 | – | 1124.61
[1], x1 = 0.1603 | – | 1107.03
[1], x1 = 0.2067 | – | 1088.41
[1], x1 = 0.2552 | – | 1069.83
[1], x1 = 0.3066 | – | 1051.21
[1], x1 = 0.3595 | – | 1032.94
[1], x1 = 0.4152 | – | 1014.72
[1], x1 = 0.5357 | – | 978.32
[1], x1 = 0.5999 | – | 960.48
[1], x1 = 0.6691 | – | 942.33
[1], x1 = 0.7439 | – | 923.8
[1], x1 = 0.8228 | – | 905.44
[1], x1 = 0.9064 | – | 887.12
[1], x1 = 1 | – | 867.9
[2], x1 = 0.0386 | -0.02 | –
[2], x1 = 0.0938 | -0.053 | –
[2], x1 = 0.159 | -0.096 | –
[2], x1 = 0.2273 | -0.157 | –
[2], x1 = 0.2973 | -0.212 | –
[2], x1 = 0.3649 | -0.262 | –
[2], x1 = 0.4253 | -0.298 | –
[2], x1 = 0.5121 | -0.339 | –
[2], x1 = 0.5732 | -0.334 | –
[2], x1 = 0.6582 | -0.315 | –
[2], x1 = 0.748 | -0.273 | –
[2], x1 = 0.8421 | -0.194 | –
[2], x1 = 0.9299 | -0.098 | –

ClCCCCCl [1,4-dichlorobutane] + CCCOC(C)=O
Conditions | excess molar enthalpy [kJ/mol] | mass density [kg/m3]
[1], x2 = 0.0583 | – | 1118.51
[1], x2 = 0.1175 | – | 1103.2
[1], x2 = 0.1743 | – | 1088.55
[1], x2 = 0.232 | – | 1073.72
[1], x2 = 0.3494 | – | 1043.76
[1], x2 = 0.465 | – | 1014.55
[1], x2 = 0.523 | – | 999.98
[1], x2 = 0.5845 | – | 984.6
[1], x2 = 0.6424 | – | 970.19
[1], x2 = 0.7011 | – | 955.64
[1], x2 = 0.7618 | – | 940.61
[1], x2 = 0.8813 | – | 911.2
[1], x2 = 0.9397 | – | 896.91
[2], x2 = 0.0555 | -0.02 | –
[2], x2 = 0.1316 | -0.055 | –
[2], x2 = 0.2183 | -0.098 | –
[2], x2 = 0.3079 | -0.15 | –
[2], x2 = 0.3915 | -0.201 | –
[2], x2 = 0.456 | -0.23 | –
[2], x2 = 0.4663 | -0.234 | –
[2], x2 = 0.4979 | -0.241 | –
[2], x2 = 0.5721 | -0.236 | –
[2], x2 = 0.6576 | -0.219 | –
[2], x2 = 0.7494 | -0.187 | –
[2], x2 = 0.8443 | -0.133 | –
[2], x2 = 0.9296 | -0.073 | –

CCCOC(C)=O [propyl ethanoate] + ClCCCCCCl
Conditions | mass density [kg/m3]
[1], x1 = 1 | 882.08
